The subject of one series is bovine brain tubulin. The series is described as follows: In vitro tubulin polymerization test (turbidimetry at 350 nm). The class given is biochemical. The conditions noted are these: molecules at 50 μM, calculated at t=3000 s, DMSO control = 100%. Summed up:
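Bovine brain tubulin was assembled at 37 °C in BRB80 (80 mM K-PIPES pH 6.8, 1 mM MgCl2, 1 mM EGTA) with 1 mM GTP. The 50 μM tests used compounds at 50 μM, run in triplicate. Turbidity at 350 nm was read at t=3000 s and expressed relative to control taken as 100%.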

The target in a further series is T1, PP1α (PP1CA) (Oryctolagus cuniculus, UniProt P62139).
T1 construct: purchased New England Biolabs P0754
As to the kind of experiment: Protein phosphatase test (PP1 activity, DiFMUP fluorescent substrate). The conditions noted are these: PP1CA at 80 mU, fluorescent substrate (50 μM), molecules from 50 μM to 50 nM; read-out: PP1 Inhibition IC50. The series is classed as biochemical. Summed up:
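PP1α (30 or 80 mU) in 100 mM Tris-HCl pH 7.5, 4 mM DTT, 0.2 mM EDTA, 0.5 mM MnCl2 was preincubated 15 min with compound (50 μM to 50 nM), then given 60 μM DiFMUP for 20 min at 37 °C. Phosphatase activity was read as fluorescence at 355-460 nm, three times in duplicate.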

A further series concerns HMEC cells. As to the kind of experiment: Proliferation of HMEC cells (GI50). The series is classed as cell-based. To be noted: Homo sapiens, 120 h, 50 μM to 1 nM for 5 days. In short, it runs like this: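 Cells seeded at 1,000/well (10% confluence) and exposed 5 days (120 h) to compound from 1 nM up to 50–100 μM. Live cells counted by Hoechst 33342 staining under fluorescence microscopy; GI50 is concentration halving proliferation versus control, mean of two triplicate experiments.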

A further series concerns HeLa cells. As to the kind of experiment: Indirect immunofluorescence: effect on HeLa cells (mitotic arrest, microtubule depolymerization). The series is classed as cell-based, human. The arrangement: key to Effect on Hela at 25 μM / Effect on Hela at 100 μM / Effect on Hela at 50 and 100 μM / Effect on Hela at 50 μM: —: −: no activity on the cells at 25 μM (if there is an effect at high concentrations, this is specified in the table).; *: weak activity (MA and/or slight depolymerization of the MTs and/or slight inhibition of proliferation),; **: average activity (MA and/or moderate depolymerization of the MTs and/or moderate inhibition of proliferation),; ***: strong activity (MA and/or pronounced depolymerization of the MTs and/or pronounced inhibition of proliferation),; ****: very strong activity (MA and/or very pronounced depolymerization of the MTs and/or strong inhibition of proliferation). The conditions noted are these: 24 hours; for Effect on Hela at 25 μM: mitotic index and/or depolymerization of the MTs. In short, it runs like this:
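HeLa cells exposed 24 h to compound (100 μM to 50 nM; primary series 1–10 μM), DMSO controls. PFA/glutaraldehyde-fixed cells immunostained for α-tubulin, actin (phalloidin) and DNA (Hoechst); fluorescence microscopy scored phenotypes and mitotic index, with mitotic index and/or MT depolymerization evaluated at 25 μM.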

T1 sequence (P62139 whole entry): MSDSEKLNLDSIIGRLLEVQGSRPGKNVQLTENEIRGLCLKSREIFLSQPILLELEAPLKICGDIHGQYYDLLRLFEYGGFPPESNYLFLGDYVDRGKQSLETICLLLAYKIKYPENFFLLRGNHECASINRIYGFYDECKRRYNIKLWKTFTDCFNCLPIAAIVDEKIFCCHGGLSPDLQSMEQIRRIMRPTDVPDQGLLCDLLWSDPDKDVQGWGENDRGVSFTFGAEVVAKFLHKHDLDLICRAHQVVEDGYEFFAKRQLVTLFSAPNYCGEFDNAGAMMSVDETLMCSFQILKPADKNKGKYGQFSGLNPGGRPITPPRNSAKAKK

In general, melting point refers to the temperature of the solid-liquid transition. As a reminder, the IC50 is the midpoint of a concentration-inhibition curve. The GI50 is the concentration that inhibits growth by half. `COc1ccc2cc(-c3ccc(C#C[Si](C)(C)C)cc3)[nH]c(=O)c2c1` [Compound 33, 7-Methoxy-3-(4-((trimethylsilyl)ethynyl)phenyl)isoquinolin-1(2H)-one] gave a melting point of 133 to 135 °C. Also, in the series with bovine brain tubulin, the Tubulin polymerization inhibition result was “— ((−) signifies that the molecule induces little or no tubulin assembly inhibition in vitro: 0+ or − −5% of the DMSO control.)”. For the same molecule, the IC50 at PP1α (PP1CA) was greater than 50 µM. Moreover, the GI50 in the series with HMEC cells lay within 25 to 50 µM. Besides, in the series with HeLa cells, the “Effect on Hela at 25 μM” value is “—”.
Molecule `COc1ccc(-c2nc(Cl)c3cc(OC)ccc3c2[N+](=O)[O-])cc1` [Compound 17, 1-Chloro-7-methoxy-3-(4-methoxyphenyl)-4-nitroisoquinoline] returned a melting point of 196 to 198 °C. Also, the Tubulin polymerization inhibition result in the series on bovine brain tubulin is “++ ((++) signifies that the molecule induces tubulin assembly inhibition in vitro comprised between 26 and 50% of the DMSO control.)”. Moreover, the IC50 at PP1α (PP1CA) was greater than 50 µM. In the series with HMEC cells, this molecule had a concentration for 50% growth inhibition (GI50) of 25 to 50 µM. Besides, the “Effect on Hela at 25 μM” value in the series on HeLa cells is “—”.
Consider `COc1ccc2cc(-c3ccc(OCc4ccccc4)cc3)[nH]c(=O)c2c1` [Compound 44, 3-(4-(Benzyloxy)phenyl)-7-methoxyisoquinolin-1(2H)-one], for which the melting point was greater than 260 °C. The Tubulin polymerization inhibition entry in the series with bovine brain tubulin is reported as “— ((−) signifies that the molecule induces little or no tubulin assembly inhibition in vitro: 0+ or − −5% of the DMSO control.)”. Further, the IC50 at PP1α (PP1CA) fell in the range of 10 to 24 µM. Further, in the series with HMEC cells, the GI50 is 25 to 50 µM. In the series on HeLa cells, the “Effect on Hela at 25 μM” value is given as “—”.
The like results for `COc1ccc(-c2[nH]c(=O)c3cc(OC)ccc3c2N2CCCCC2)cc1` [Compound 40, 4-(Piperidin-1-yl)-7-methoxy-3-(4-methoxyphenyl)isoquinoline-1(2H)-one] were, in that order, 206 °C, “+++ ((+++) signifies that the molecule induces tubulin assembly inhibition in vitro of more than 50% with respect to the DMSO control.)”, greater than 50 µM, 0.1 to 1 µM and “—”.
`COc1ccc(-c2[nH]c(=S)c3cc(OC)ccc3c2[N+](=O)[O-])cc1` [Compound 18, 7-Methoxy-3-(4-methoxyphenyl)-4-nitroisoquinoline-1(2H)-thione] yielded a melting point of 226 to 228 °C. In addition, the Tubulin polymerization inhibition result in the series with bovine brain tubulin is recorded as “+++ ((+++) signifies that the molecule induces tubulin assembly inhibition in vitro of more than 50% with respect to the DMSO control.)”. Also, the IC50 at PP1α (PP1CA) lay in the range of 10 to 24 µM. In the series on HMEC cells, the concentration for 50% growth inhibition (GI50) lay in the range of 1 to 25 µM. In addition, in the series on HeLa cells, the “Effect on Hela at 25 μM” value is on record as “****”.
`COc1ccc(-c2nc(OC)c3cc(OC)ccc3c2Br)cc1` [Compound 27, 4-Bromo-1,7-Dimethoxy-3-(4-methoxyphenyl)isoquinoline] displayed a melting point of 138 to 140 °C. Further, in the series on bovine brain tubulin, the Tubulin polymerization inhibition entry was “+ ((+) signifies that the molecule induces tubulin assembly inhibition in vitro comprised between 6 and 25% of the DMSO control.)”. Further, the half-inhibitory concentration (IC50) at PP1α (PP1CA) was greater than 50 µM. Also, the GI50 in the series with HMEC cells lay in the range of 25 to 50 µM. Moreover, the “Effect on Hela at 25 μM” value with HeLa cells is given as “—”.
The molecule `COC(=O)c1nnn(-c2c(-c3ccc(OC)cc3)[nH]c(=O)c3cc(OC)ccc23)c1C(=O)OC` [Compound 48, Dimethyl 1-[7-methoxy-3-(4-methoxyphenyl)-1-oxo-1,2-dihydroisoquinolin-4-yl]-1H-[1,2,3]triazole-4,5-dicarboxylate] registered a melting point of 220 °C. Moreover, the Tubulin polymerization inhibition entry in the series on bovine brain tubulin was “— ((−) signifies that the molecule induces little or no tubulin assembly inhibition in vitro: 0+ or − −5% of the DMSO control.)”. Also, the IC50 on PP1α (PP1CA) is greater than 50 µM. In the series with HMEC cells, this molecule came in with a GI50 of 25 to 50 µM. The “Effect on Hela at 25 μM” value with HeLa cells is “—”. Also, the “Effect on Hela at 50 μM” value in the series with HeLa cells (50 μM) was “*”.
With `COc1ccc(-c2nc(SCc3ccccc3)c3cc(OC)ccc3c2[N+](=O)[O-])cc1` [Compound 21, 1-(Benzylthio)-7-methoxy-3-(4-methoxyphenyl)-4-nitroisoquinoline], the melting point lay in the range of 148 to 150 °C. The Tubulin polymerization inhibition entry in the series on bovine brain tubulin is on record as “+++ ((+++) signifies that the molecule induces tubulin assembly inhibition in vitro of more than 50% with respect to the DMSO control.)”. The 50% inhibitory concentration (IC50) at PP1α (PP1CA) was 25 to 50 µM. This molecule had a GI50 in the series on HMEC cells greater than 50 µM. In the series with HeLa cells, the “Effect on Hela at 25 μM” value was “—”.
`COc1ccc(-c2[nH]c(=O)c3cc(OC)ccc3c2N(C)C)cc1` [Compound 23, 4-(Dimethylamino)-7-methoxy-3-(4-methoxyphenyl)isoquinoline-1(2H)-one]: the melting point was 183 to 185 °C. Besides, the Tubulin polymerization inhibition entry with bovine brain tubulin was “+ ((+) signifies that the molecule induces tubulin assembly inhibition in vitro comprised between 6 and 25% of the DMSO control.)”. The IC50 on PP1α (PP1CA) is greater than 50 µM. In the series on HMEC cells, this molecule had a GI50 of 1 to 25 µM. Besides, the “Effect on Hela at 25 μM” value with HeLa cells is “***”.
Turning to `COc1ccc(-c2cc3ccc(OC)cc3c(=S)[nH]2)cc1` [Compound 12, 7-Methoxy-3-(4-methoxyphenyl)isoquinoline-1(2H)-thione], the melting point fell in the range of 188 to 190 °C. Further, the Tubulin polymerization inhibition entry in the series with bovine brain tubulin was “++ ((++) signifies that the molecule induces tubulin assembly inhibition in vitro comprised between 26 and 50% of the DMSO control.)”. Further, the IC50 at PP1α (PP1CA) was no more than 9 µM. In addition, in the series with HMEC cells, the 50% growth inhibitory concentration (GI50) fell in the range of 1 to 25 µM. Also, in the series on HeLa cells, the “Effect on Hela at 25 μM” value is reported as “—” and the “Effect on Hela at 100 μM” value is “*”.
The molecule `COc1ccc(-c2cc3ccc(OC)cc3c(S(=O)(=O)O)n2)cc1` [Compound 13, 7-methoxy-3-(4-methoxyphenyl)isoquinoline-1-sulphonic acid] yielded a melting point of 226 to 228 °C. In addition, the Tubulin polymerization inhibition entry in the series with bovine brain tubulin was “++ ((++) signifies that the molecule induces tubulin assembly inhibition in vitro comprised between 26 and 50% of the DMSO control.)”. Moreover, the IC50 on PP1α (PP1CA) is greater than 50 µM. Also, in the series with HMEC cells, the GI50 was greater than 50 µM. Further, in the series with HeLa cells, the “Effect on Hela at 25 μM” value is “—” and the “Effect on Hela at 100 μM” value was “*”.
With `COc1ccc2c([N+](=O)[O-])c(-c3ccc(C#C[Si](C)(C)C)cc3)[nH]c(=O)c2c1` [Compound 35, 7-Methoxy-4-nitro-3-(4-((trimethylsilyl)ethynyl)phenyl)isoquinolin-1(2H)-one], the melting point was 178 to 180 °C. Besides, the Tubulin polymerization inhibition entry in the series with bovine brain tubulin is given as “— ((−) signifies that the molecule induces little or no tubulin assembly inhibition in vitro: 0+ or − −5% of the DMSO control.)”. Moreover, the IC50 at PP1α (PP1CA) was in the range of 10 to 24 µM. The molecule further had a GI50 in the series on HMEC cells of no more than 0.1 µM. For the same molecule, the “Effect on Hela at 25 μM” value with HeLa cells is given as “***”.
In turn, `COc1ccc(-c2c([N+](=O)[O-])c3ccc(OC)cc3c(=O)n2CC#N)cc1` [Compound 30, 2-(7-Methoxy-3-(4-methoxyphenyl)-4-nitro-1-oxoisoquinolin-2(1H)-yl)ethanenitrile] yielded a melting point of 194 to 196 °C. Besides, the Tubulin polymerization inhibition result with bovine brain tubulin was “+ ((+) signifies that the molecule induces tubulin assembly inhibition in vitro comprised between 6 and 25% of the DMSO control.)”. Besides, the 50% inhibitory concentration (IC50) on PP1α (PP1CA) is no less than 50 µM. In addition, in the series on HMEC cells, the GI50 is greater than 50 µM. The “Effect on Hela at 25 μM” value in the series with HeLa cells is recorded as “—”.

Source of the values: patent publication US8883763B2 (Universite Joseph Fourier, priority 2010, dated 2014).
